Values of other authors in patent US20180200206A1, “[…] METHODS AND COMPOSITIONS FOR TREATING BREAST DISORDERS” (ATOSSA GENETICS INC., priority 2015, published 2018).

Target: estrogen receptor (Homo sapiens, UniProt P03372)
Conditions: more potent than tamoxifen; stated as known in the art

Sequence of estrogen receptor (P03372 whole entry): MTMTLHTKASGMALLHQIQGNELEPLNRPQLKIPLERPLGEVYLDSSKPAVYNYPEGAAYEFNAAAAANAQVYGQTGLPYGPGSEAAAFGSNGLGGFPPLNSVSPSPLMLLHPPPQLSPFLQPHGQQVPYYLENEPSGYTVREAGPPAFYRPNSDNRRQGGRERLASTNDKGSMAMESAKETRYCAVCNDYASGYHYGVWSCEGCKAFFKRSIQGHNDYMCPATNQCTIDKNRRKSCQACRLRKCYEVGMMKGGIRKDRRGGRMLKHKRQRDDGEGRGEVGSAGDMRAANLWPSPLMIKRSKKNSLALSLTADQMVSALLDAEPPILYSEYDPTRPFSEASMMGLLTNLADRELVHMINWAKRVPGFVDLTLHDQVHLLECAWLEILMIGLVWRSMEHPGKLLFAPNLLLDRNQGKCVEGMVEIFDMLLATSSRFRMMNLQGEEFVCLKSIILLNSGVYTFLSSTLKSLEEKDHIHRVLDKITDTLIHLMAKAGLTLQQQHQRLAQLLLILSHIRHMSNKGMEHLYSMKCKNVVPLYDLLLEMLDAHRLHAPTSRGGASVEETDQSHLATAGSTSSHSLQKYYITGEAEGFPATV

For 4-hydroxytamoxifen, the “potency relative to tamoxifen” value is given as 100 times.
